# How the values were obtained:
# [1] = tested on: B. divergens; set-up: method as in PMID 30103207; conditions: bovine erythrocyte cultures, cited from earlier work
# [2] = tested on: B. divergens proteasome β5 subunit; assay type: biochemical, Babesia divergens; conditions: Suc-LLVY-amc; for proteasome activity relative to activity with PA28α: Buffer B
# Method: (§1) B. divergens and B. microti protein lysates were prepared from infected red blood cells. Briefly, red blood cells were lysed with 0.15% saponin prepared in 1× Phosphate-Buffered Saline (PBS), pH 7.5, to release intact parasites. Parasites were washed with 1× PBS, pH 7.5 (PBS), by centrifugation and the pellets were stored at −80 °C in PBS plus 20% glycerol. To prepare protein lysates for enzymatic assays, parasites were thawed and transferred to 50 mM HEPES (pH 7.5), 10 μM E64, 100 μM AESBF, 1 μM Pepstatin A, and 1 mM DTT (all Sigma-Aldrich). Cells were ruptured by ultrasonication with an amplitude of 0.5 for 3 cycles of 15 s on ice. To prepare protein lysates for activity-based probing and proteasome purification, parasites were thawed and transferred to 20 mM Tris-HCl, pH 7.5, 1 mM DTT, 10 μM E64, and 5% glycerol. The lysate was sonicated on ice for 3 times and clarified by centrifugation at 17,000g for 10 min at 4 °C.
# To further improve the detection of the β5 subunit activity with the Suc-LLVY-amc substrate of the Babesia proteasome as previously published,[27] we aimed to further optimize assay conditions. However, to reduce the number of experimental animals in the study, assay conditions were optimized using protein lysates of B. divergens, which can be grown in vitro, instead of B. microti lysates, which need to be maintained in mice. […] Assay conditions were optimized in 50 μL volumes in round-bottom 96-well plates. Two assay buffers were evaluated. Buffer A, as described previously,[27] consists of 20 mM HEPES, pH 8, 1 mM ATP, and 1 μM E64, while Buffer B consists of 50 mM HEPES, pH 7.5, 5 mM ATP, 10 μM E64, 100 μM AESBF, 1 μM Pepstatin A, and 1 mM DTT. Buffers A and B were tested with either 0.02% SDS or 6.67 ng of PA28 as activators of the proteasome activity. […] The release of the AMC fluorophore was monitored at 37 °C in a Synergy HTX multimode reader (BioTek) with excitation and emission wavelengths set to 340 and 460 nm, respectively.
# Proteasome activity in B. microti and B. divergens lysates was screened in the presence of carmaphycin B (CPB) and numerous analogs that were previously designed to target the P. falciparum 20S proteasome.[30] A pool of lysates was made for each species to ensure that equal amounts of the lysates were used in each inhibition reaction. Inhibitors were transferred to black 384-well plates with the ATS acoustic transfer system (ATS-100, Biosera). Lysates were incubated with inhibitors for 30 min at room temperature and activity was assayed in 30 μL reactions. Each reaction mixture contained 5 μL of Babesia lysate, 10 nL of the inhibitor (final concentration of 133.33 nM), and 25 μL of assay buffer with 25 μM substrate succinyl-Leu-Leu-Val-Tyr-7-amido-4-methylcoumarin (Suc-LLVY-amc). The release of the AMC fluorophore was monitored at 37 °C in a Synergy HTX multimode reader (BioTek Instruments, Winooski, VT) with excitation and emission wavelengths set to 340 and 460 nm, respectively. Activity was quantified as RFU per second and normalized to the DMSO control reactions.
# [3] = tested on: Bd20S; experiment: Fluorogenic substrate screen with Bd20S/PA28α with and without marizomib; assay type: biochemical, Babesia divergens; conditions: 6 μM MZB
# Method: (§2) To assess the enzyme activity, 8 ng of purified preparation was preincubated with 0 to 4000 nM recombinant human PA28α for 1 h at room temperature (RT). The enzyme activity was then assayed with 50 μM Suc-LLVY-amc in 50 mM HEPES, pH 7.5, and 1 mM DTT in the presence of 250 nM PA28α. To evaluate the substrate specificity for β5, β2, and β1 subunits, a set of available proteasome substrates was screened that included Suc-LLVY-amc, Z-VLR-amc and Z-LLE-amc, Ac-FnKL-amc, Ac-nPnD-amc, Ac-RYFD-amc, Ac-FRSR-amc, and Ac-GWYL-amc. Bd20S was initially activated with PA28α and the rate of release of 7-amino-4-methyl coumarin (amc) was quantified over time following addition of the substrates. For control, 6 μM marizomib (MZB, MedChemExpress) was used to ensure substrate cleavage by proteasome. For inhibition studies, IC50 values were measured using presteady-state enzyme kinetics. Five or 100 nL of inhibitor at concentrations ranging from 10 mM to 170 nM was dispensed using the ECHO 650 liquid handler (Beckman). Subsequently, 4 μL of 100 μM substrate was added, followed by 4 μL of Bd20S, and the release of amc was immediately measured. The IC50 values were calculated from the fluorescence units per second (RFU/s) recorded between 60 and 90 min after the reaction. […] Data were analyzed and plotted using GraphPad software.
# [4] = tested on: endogenous polyubiquitinated proteins in B. divergens; experiment: Western blot of polyubiquitinated proteins in treated B. divergens cultures; assay type: cell-based, Babesia divergens; conditions: 200 nM, 24 h, anti-Ubiquitin K48 western blot, vs 0.1% DMSO
# Method: To assess the on-target effect of proteasome inhibition, protein lysates of B. divergens isolated from bovine erythrocyte cultures were evaluated for the accumulation of polyubiquitinated proteins. The B. divergens cultures underwent two 12 h treatments (totaling 24 h) with 200 nM of the inhibitor in culture medium. Parasites were released from RBCs and protein lysates were prepared as described above. The resulting samples were then centrifuged at 15,000g for 15 min at 4 °C and protein concentrations of the resulting supernatant were determined using Bradford assay.[29] Samples were prepared for SDS-PAGE in reducing Laemmli buffer supplemented with β-mercaptoethanol. Ten micrograms of protein was applied per lane and proteins were separated on gradient (4–15%) Criterion TGX Stain-Free Precast gels (BioRad) in Tris-Glycine-SDS running buffer (25 mM Tris, 192 mM glycine, and 0.1% (w/vol) SDS, pH 8.3) and visualized using TGX stain-free chemistry (BioRad). […] After washing (3 × 10 min) in PBS-T, signals were detected using Clarity Max Western ECL substrate (BioRad), visualized using a ChemiDoc MP imager, analyzed, and adjusted using the ImageLab freeware (BioRad).
# [5] = tested on: catalytic subunits of Bd20S; experiment: Activity-based probe labeling (Me4BodipyFL-Ahx3Leu3VS) of Bd20S catalytic subunits; assay type: binding, Babesia divergens; conditions: lysates from CFZ- and CPB-treated cells, vs vehicle
# [6] = tested on: B. microti proteasome β5 subunit; experiment: β5 proteasome activity in B. microti lysates (Suc-LLVY-amc); assay type: biochemical, Babesia microti; conditions: 133.33 nM inhibitor, relative to DMSO
# Method: as §1
# To further improve the detection of the β5 subunit activity with the Suc-LLVY-amc substrate of the Babesia proteasome as previously published,[27] we aimed to further optimize assay conditions. However, to reduce the number of experimental animals in the study, assay conditions were optimized using protein lysates of B. divergens, which can be grown in vitro, instead of B. microti lysates, which need to be maintained in mice. […] Two assay buffers were evaluated. […] The release of the AMC fluorophore was monitored at 37 °C in a Synergy HTX multimode reader (BioTek) with excitation and emission wavelengths set to 340 and 460 nm, respectively.
# Proteasome activity in B. microti and B. divergens lysates was screened in the presence of carmaphycin B (CPB) and numerous analogs that were previously designed to target the P. falciparum 20S proteasome.[30] […] The release of the AMC fluorophore was monitored at 37 °C in a Synergy HTX multimode reader (BioTek Instruments, Winooski, VT) with excitation and emission wavelengths set to 340 and 460 nm, respectively. Activity was quantified as RFU per second and normalized to the DMSO control reactions.
# [7] = tested on: β1 subunit of Bd20S; experiment: Fluorogenic kinetic assay of enriched Bd20S with PA28α and the β1 substrate Ac-nPnD-amc (50 mM HEPES pH 7.5, 1 mM DTT), no preincubation stated, rate of amc release read between 60 and 90 min, 8 µL volume.; assay type: biochemical; conditions: n = 3
# Method: as §2
# [8] = tested on: β5 subunit of Bd20S; experiment: Fluorogenic kinetic assay of enriched Bd20S with PA28α and the β5 substrate Ac-FnKL-amc (50 mM HEPES pH 7.5, 1 mM DTT), no preincubation stated, rate of amc release read between 60 and 90 min, 8 µL volume.; assay type: biochemical; conditions: n = 3
# Method: as §2
# [9] = tested on: β2 subunit of Bd20S; experiment: Fluorogenic kinetic assay of enriched Bd20S with PA28α and the β2 substrate Z-VLR-amc (50 mM HEPES pH 7.5, 1 mM DTT), no preincubation stated, rate of amc release read between 60 and 90 min, 8 µL volume.; assay type: biochemical; conditions: n = 3
# Method: as §2
compound,measurement,setting,value
CC[C@H](C)[C@H](NC(=O)[C@H]([C@@H](C)CC)N(C)C(C)=O)C(=O)N[C@H](C(=O)N[C@@H](CC(C)C)C(=O)[C@@]1(C)CO1)[C@@H](C)O [epoxomicin],concentration range significantly reducing B. divergens growth,[1],25 to 200 nM
COc1ccc(C[C@H](NC(=O)[C@H](C)NC(=O)CN2CCOCC2)C(=O)N[C@@H](Cc2ccccc2)C(=O)C2(C)CO2)cc1 (stereo in doubt) [ONX-0914],concentration range significantly reducing B. divergens growth,[1],25 to 200 nM
PA28γ: human proteasome activator subunit PA28γ (BioTechne #E-384),proteasome activity relative to activity with PA28α,[2]; B. divergens lysate,12.83%
C[C@@]12OC(=O)[C@]1([C@@H](O)[C@@H]1C=CCCC1)NC(=O)[C@@H]2CCCl [marizomib],activity with all fluorogenic substrates in presence of inhibitor,[3],eliminated
CC(C)C[C@H](NC(=O)[C@H](CCc1ccccc1)NC(=O)CN1CCOCC1)C(=O)N[C@@H](Cc1ccccc1)C(=O)N[C@@H](CC(C)C)C(=O)[C@@]1(C)CO1 [carfilzomib],inhibition of β5 activity in B. divergens lysate (in words),"[2]; 133.33 nM inhibitor, relative to DMSO",completely inactivate
same,decrease of enzyme activity,"[2]; B. divergens lysate, with PA28α",> 95%
same,accumulation of endogenous polyubiquitinated proteins,[4],marked accumulation
same,labeling of catalytic subunits by activity-based probe,[5],significantly reduced
same,inhibition of β5 activity in B. microti lysate (in words),[6],inhibited
same,concentration range significantly reducing B. divergens growth,[1],25 to 200 nM
same,EC50,[1]; read-out: EC50 B. divergens growth,29 nM
PA28β: human proteasome activator subunit PA28β (BioTechne #E-382),proteasome activity relative to activity with PA28α,[2]; B. divergens lysate,14.41%
PA28α: recombinant human proteasome activator PA28α (Uniprot Q06323),increase of enzyme activity by activator,"[2]; B. divergens lysate, compared with SDS",3 fold
"CCCCCC(=O)N[C@H](C(=O)N[C@@H](CCS(C)(=O)=O)C(=O)N[C@@H](CC(C)C)C(=O)[C@@]1(C)CO1)C(C)C [CPB, carmaphycin B]",IC50,[7],> 3000 nM
same,IC50,[8],27.9 nM
same,IC50,[9],34.3 nM
